Like-named read-outs stand apart in the source and are kept apart here.

The IC50 is the point on the concentration scale where inhibition reaches its midpoint.

The test addresses T1, human B-Raf (Homo sapiens, UniProt P15056).
T1 construct: Flag; GST; made in house; host or cells: Sf9 insect cells (B-Raf); E. coli (MEK1-GST)
As to the kind of experiment: B-Raf Kinase to MEK1 ELISA. In kind it is biochemical. Particulars: for inhibition at 10 µM: read-out: % Inhib./10 uM. The method in brief:
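Read-out is a DELFIA europium signal from phospho-MEK1 (Ser217/221) antibody after capture of GST-MEK1 (50 nM final) on anti-GST plates. Phosphorylation comes from Sf9-expressed Flag/GST human B-Raf (~20 ng) with ATP/MgCl2, 60 min RT, pH 7.2 MOPS.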

Setting [1] is: median, cpd concentrations from 10 μM to 30 nM in half log dilutions, read-out: Median IC50.

T1 sequence (P15056 whole entry): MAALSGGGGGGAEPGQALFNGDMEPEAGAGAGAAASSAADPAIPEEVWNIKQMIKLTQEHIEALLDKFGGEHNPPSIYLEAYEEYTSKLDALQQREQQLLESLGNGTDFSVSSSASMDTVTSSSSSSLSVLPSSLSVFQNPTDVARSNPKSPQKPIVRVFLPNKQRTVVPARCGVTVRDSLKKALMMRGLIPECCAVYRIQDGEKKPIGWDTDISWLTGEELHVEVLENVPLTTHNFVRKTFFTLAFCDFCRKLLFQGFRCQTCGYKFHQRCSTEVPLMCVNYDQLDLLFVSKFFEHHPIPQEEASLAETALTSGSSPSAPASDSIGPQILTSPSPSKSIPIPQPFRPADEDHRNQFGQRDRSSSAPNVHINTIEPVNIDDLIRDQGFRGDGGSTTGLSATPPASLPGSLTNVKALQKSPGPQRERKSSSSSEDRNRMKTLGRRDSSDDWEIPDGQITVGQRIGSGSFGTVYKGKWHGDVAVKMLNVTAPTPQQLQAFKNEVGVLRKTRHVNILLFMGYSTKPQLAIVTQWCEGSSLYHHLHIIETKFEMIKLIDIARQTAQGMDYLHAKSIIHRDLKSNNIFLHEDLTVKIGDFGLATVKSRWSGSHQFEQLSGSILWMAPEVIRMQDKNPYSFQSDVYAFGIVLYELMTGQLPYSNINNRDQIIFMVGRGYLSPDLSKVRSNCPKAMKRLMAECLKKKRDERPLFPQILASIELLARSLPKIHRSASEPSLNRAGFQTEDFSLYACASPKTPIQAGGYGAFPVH

For `O=C(Nc1cccc(-c2ccnc3cc(-c4ccncc4)nn23)c1)c1ccc(Cl)c(Cl)c1` [Example 149, 3,4-dichloro-N-[3-(2-pyridin-4-ylpyrazolo[1,5-a]pyrimidin-7-yl)phenyl]benzamide], 1250 nM corresponded to half-maximal inhibition (IC50) and the inhibition at 10 µM turned out to be 72%.

Consider `CCOC(=O)c1cnn2c(-c3cccc(NC(=O)Nc4ccc(SC)cc4)c3)ccnc12` [Example 18, ethyl 7-{3-[({[4-(methylthio)phenyl]amino}carbonyl)amino]phenyl}pyrazolo[1,5-a]pyrimidine-3-carboxylate], for which the inhibition at 10 µM was 0%. Further, the IC50 under setting [1] is greater than 10000 nM.

For the compound `CCOC(=O)c1cnn2c(-c3cccc(NC(=O)c4ccccc4)c3)ccnc12` [Example 3, Pyrazolo[1,5-a]pyrimidine-3-carboxylic acid, 7-[3-(benzoylamino)phenyl]-, ethyl ester], the inhibition at 10 µM was found to be 4%. Moreover, the half-inhibitory concentration (IC50) under setting [1] was greater than 20000 nM.

In the case of `CCOC(=O)c1cnn2c(-c3cccc(NC(=O)Nc4cc(C)on4)c3)ccnc12` [Example 248, ethyl7-[3-({[(5-methylisoxazol-3-yl)amino]carbonyl}amino)phenyl]pyrazolo[1,5-a]pyrimidine-3-carboxylate], the inhibition at 10 µM turned out to be 10%. For the same compound, the half-inhibitory concentration (IC50) under setting [1] is greater than 10000 nM.

Turning to `O=C(Nc1ccc(F)c(-c2ccnc3ccnn23)c1)c1cccc(C(F)(F)F)c1` [Example 318, N-(4-fluoro-3-pyrazolo[1,5-a]pyrimidin-7-ylphenyl)-3-(trifluoromethyl)benzamide], the inhibition at 10 µM came to 59%. Also, the IC50 under setting [1] is 3550 nM.

As for `Cc1ccc(C(=O)Nc2cccc(-c3ccnc4c(C#N)c(N5CCNCC5)nn34)c2)cc1C(F)(F)F` [Example 68, N-[3-(3-cyano-2-piperazin-1-ylpyrazolo[1,5-a]pyrimidin-7-yl)phenyl]-4-methyl-3-(trifluoromethyl)benzamide], the inhibition at 10 µM was determined as 45%. Further, the IC50 under setting [1] amounted to 8400 nM.

With `CCOC(=O)c1cnn2c(-c3cccc(NC(=O)Nc4ccccc4C(F)(F)F)c3)ccnc12` [Example 39, ethyl 7-{3-[({[2-(trifluoromethyl)phenyl]amino}carbonyl)amino]phenyl}pyrazolo[1,5-a]pyrimidine-3-carboxylate], the half-inhibitory concentration (IC50) under setting [1] was greater than 10000 nM. Further, where the note is “single point assay, 10 uM”, the inhibition at 10 µM turned out to be 14%.

With `Cc1cccc(C(=O)Nc2cccc(-c3ccnc4cc(-c5ccncc5)nn34)c2)c1` [Example 147, 3-methyl-N-[3-(2-pyridin-4-ylpyrazolo[1,5-a]pyrimidin-7-yl)phenyl]benzamide], the inhibition at 10 µM came out at 66%. Besides, the IC50 under setting [1] is 1400 nM.

In the case of `COCCOC(=O)c1cnn2c(-c3cccc(NC(=O)c4cccc(C(F)(F)F)c4)c3)ccnc12` [Example 128, 2-methoxyethyl 7-(3-{[3-(trifluoromethyl)benzoyl]amino}phenyl)pyrazolo[1,5-a]pyrimidine-3-carboxylate], the inhibition at 10 µM was 68%. The half-maximal inhibitory concentration (IC50) under setting [1] worked out at 116 nM.

For the compound `Cc1ccc(C(=O)Nc2cccc(-c3ccnc4c(-c5cccc(O)c5)cnn34)c2)cc1C(F)(F)F` [Example 181, N-{3-[3-(3-hydroxyphenyl)pyrazolo[1,5-a]pyrimidin-7-yl]phenyl}-4-methyl-3-(trifluoromethyl)benzamide], inhibition was half-maximal at 290 nM (IC50) and the inhibition at 10 µM was 87%.

Consider `O=C(Nc1cccc(-c2ccnc3cc(-c4ccncc4)nn23)c1)c1ccc(Cl)c(C(F)(F)F)c1` [Example 129, 4-chloro-N-[3-(2-pyridin-4-ylpyrazolo[1,5-a]pyrimidin-7-yl)phenyl]-3-(trifluoromethyl)benzamide], for which 50 nM corresponded to half-maximal inhibition (IC50) and the inhibition at 10 µM was determined as 86%.

As for `CCOC(=O)c1cnn2c(-c3ccc(F)c(NC(=O)c4cccc(C(F)(F)F)c4)c3)ccnc12` [Example 89, ethyl 7-(4-fluoro-3-{[3-(trifluoromethyl)benzoyl]amino}phenyl)pyrazolo[1,5-a]pyrimidine-3-carboxylate], the inhibition at 10 µM was found to be 65%. Besides, the half-maximal inhibitory concentration (IC50) under setting [1] was determined as 2170 nM.

The values above are taken from patent publication US20070219186A1, “Pyrazolo[1,5-A]pyrimidine derivatives and methods of use thereof” (priority 2006, published 2007).
